Test results from patent US8258309B2, “Azapeptide derivatives” (priority 2007, dated 2012).
Like-named read-outs stand apart in the source and are kept apart here.

What was measured:
HIV-1RF = test: HIV anti-viral activity in CEM-SS cells infected with HIV-1 (XTT); format: cell-based; conditions: for fold less potent in the presence of HSA than in cell culture medium alone: 10 mg/mL HSA versus cell culture medium
Experimental: The HIV antiviral activity of compound of the present invention was tested in CEM-SS cells infected with HIV-1. CEM-SS cells were passaged in T-75 flasks in RPMI 1640 medium supplemented with 10% heat inactivated fetal bovine serum, 2 mmol/L L-glutamine, 100 U/mL penicillin and 100 flg/mL streptomycin prior to use in the antiviral assay. On the day preceding the assay, the cells were split 1:2 to assure they were in an exponential growth phase at the time of infection. Total cell and viability quantification was performed using a hemocytometer and Trypan Blue dye exclusion. Cell viability was greater than 95% for the cells to be utilized in the assay. The cells were resuspended at 5×10^4 cells per mL in tissue culture medium and added to the drug-containing microtiter plates in a volume of 50 μL.
The virus used for the assay was the lymphocyte-tropic virus strain HIV-IRF. The virus was obtained from the NIH AIDS Research and Reference Reagent Program and stock virus pools were produced in CEM-SS cells. A pre-titered aliquot of virus was removed from the freezer (−80° C.) and allowed to thaw slowly to room temperature in a biological safety cabinet. Virus was resuspended and diluted into tissue culture medium such that the amount of virus added to each well in a volume of 50 μL was the amount determined to yield 85 to 95% cell killing at 6 days post-infection.
Each plate contains cell control wells (cells only), virus control wells (cells plus virus), compound toxicity wells (cells plus compound only), compound colorimetric control wells (compound only) as well as experimental wells (compound plus cells plus virus). Samples were tested in triplicate with eleven half-log dilutions per compound starting at 0.1 μM of compound. Compounds 104, 120 and 122 were tested, as was atazanavir and AZT. […]
Following incubation at 37° C. in a 5% CO2 incubator, the test plates were stained with the tetrazolium dye XTT (2,3-bis(2-methoxy-4-nitro-5sulfophenyl)-5-[(phenylamino)carbonyl]-2H-tetrazolium hydroxide). XTT-tetrazolium was metabolized by the mitochondrial enzymes of metabolically active cells to a soluble formazan product, allowing rapid quantitative analysis of the inhibition of HIV induced cell killing by anti-HIV test substances. XTT solution was prepared daily as a stock of 1 mg/mL in RPMI 1640. Phenazine methosulfate (PMS) solution was prepared at 0.15 mg/mL in PBS and stored in the dark at −20° C. XTT/PMS stock was prepared immediately before use by adding 40 μL of PMS per mL of XTT solution. Fifty microliters of XTT/PMS was added to each well of the plate and the plate was reincubated for 4 hours at 37° C. Plates were sealed with adhesive plate sealers and shaken gently or inverted several times to mix the soluble formazan product and the plate was read spectrophotometrically at 450/650 nm with a Molecular Devices Vmax plate reader.
Raw data was collected from the Softmax Pro 4.6 software and imported into a Microsoft Excel 2003 spreadsheet for analysis by linear curve fit calculations.

[1] = Microsomal assay: stability in human liver microsomes; format: in vitro ADME; conditions: for half-life at 1 μM: liver microsomes
Experimental: Microsomal Assay. Human liver microsomes (20 mg/mL, pool of 50 individuals) were obtained from Xenotech LLC (Lenexa, Kans.). The incubation mixtures are prepared as follows. Stock solutions (10 mM) solutions of test Compounds 103, 106, 122 and of atazanavir were prepared in DMSO. The 10 mM stock solutions were diluted to 1 mM in acetonitrile (ACN). […] The microsome-test compound mixtures were added to wells of a 2 mL 96-well deep well polypropylene plate in triplicate. The plate was warmed to 37° C. before initiating the reactions by addition of prewarmed NADPH in 0.1 M potassium phosphate buffer, pH 7.4, containing 3 mM MgCl2. The final reaction mixture composition contained: • Liver Microsomes 0.5 mg/mL • NADPH 2 mM • Potassium Phosphate, pH 7.4 100 mM • Magnesium Chloride 3 mM • Test Compound 1.0 μM. The reaction mixtures were incubated at 37° C. and 50 μL aliquots were removed at 0, 3, 7, 12, 20, and 30 minutes and added to shallow-well 96-well plates which contained 50 μL of ice-cold ACN with internal standard to stop the reactions. The plates were stored at −20° C. for 30 minutes, after which 100 μL of water was added to the wells of the plate before centrifugation to pellet precipitated proteins. Supernatants were transferred to another 96-well plate and analyzed for amounts of parent remaining by LC-MS/MS using an Applied Biosystems API 4000 mass spectrometer. […] Data analysis was performed using Microsoft Excel Software. […] The results are shown in FIGS. 2 and 3 and in Table 3, below: […]

[2] = Chimp pharmacokinetics Run A, IV or PO co-dosing of atazanavir and Compounds 114, 120, 122; format: in vivo, chimpanzee; conditions: for concentration at 24 h: concentration detected intact in urine
Experimental: Chimp Pharmacokineties. Run A: A 4 mg/mL solution of atazanavir and each of Compounds 114, 120 and 122 were prepared in 10% DMI (dimethyl isosorbide), 15% EtOH, 35% PG in D5W. Specifically, for each compound, 240 mgs of compound was dissolved in a solution composed of 6 mL of DMI, 9 mL of EtOH and 21 mL PG. Once the compound was fully dissolved, 24 mL of D5W was added and the solution mixed.
Fifty-five mL of each drug solution is then combined and the mixture was sterile filtered using a 0.2 μm filter. This produced 220 mL of a 1:1:1:1 mixture atazanavir:Compound 114:Compound 120:Compound 122. The final concentration of each drug in the solution was 1 mg/mL. Each animal received 50 mL of this solution through either IV or PO routes.
(§1) Four chimps (two male and two female) were used in this study and were fasted overnight prior to administration of the compound solution. Animals were sedated with ketamine and/or telazol prior to dosing. Intravenous dosing was achieved by IV infusion over 30 minutes.
(§2) Approximately 4.5 mL of blood was collected into vacutainer tubes with sodium heparin as an anticoagulant at 0 (preinfusion), 15 min., 29.5 min (immediately before the end of the infusion), and then at 6, 15, 30, and 45 minutes, and 1, 2, 4, 6, 8, 10, 12, 24 hours after the infusion is stopped. A similar procedure was used to collect blood after oral dosing with samples taken at 0 (predose), 15, and 30 minutes, and at 1, 1.5, 2, 4, 6, 8, 10, 12, 24 hours postdose. Following sample collection, the vacutainer tubes were rocked by hand several times to insure adequate mixing. Blood samples were placed immediately on wet ice and centrifuged within 1 hour from time of collection. Following centrifugation, the resulting plasma was stored frozen at −70° C. until analysis. The results are summarized in FIGS. 4 and 5 and tables 6 and 7.

in vivo = conditions: chimpanzee, po; for concentration detected intact in urine: 24 h; for concentration at 24 h: concentration detected intact in urine
Experimental: as §1, §2
Run B: Same as Run A, except the dose was 150 mg orally of each of atazanavir and compounds 114 and 120, and the vehicle was 10 percent ethanol, 40 percent polypropylglycol in 2.5 percent citric acid.

[3] = chimp A242E, PO, 24 hours, Run A
[4] = chimp A336C, IV, 24 hours, Run A
[5] = human, pH 7.4, human liver microsomes, repeated assay (Table 3), read-out: t1/2 (min) Avg ± SD (n = 3)

## 1,14-Dimethyl(3S,8S,9S,12S)-3-(1,1-dimethylethyl)-12-[(1,1-dimethylethyl)-d9]-8-hydroxy-4,11-dioxo-9-(phenylmethyl)-6-[[4-(2-pyridinyl)phenyl]methyl]-2,5,6,10,13-pentaazatetradecanedioate [Compound 104]
HIV-1RF; 0.5 mg/mL AAGP versus cell culture medium
  fold increase of EC50 in the presence of AAGP: greater than 7 fold
HIV-1RF
  fold less potent in the presence of HSA than in cell culture medium alone: two- to greater than three-fold less potent
HIV-1RF; +0.5 mg/mL AAGP
  EC50: 2 nM
HIV-1RF; +10 mg/mL HAS
  EC50: 0.9 nM
HIV-1RF; +AAGP + HSA
  EC50: 4 nM
HIV-1RF; AAGP plus HSA versus cell culture medium
  fold decrease of antiviral activity in the presence of AAGP plus HSA: greater than 13 fold
HIV-1RF; No Serum Protein Added (cell culture medium)
  EC50: < 0.3 nM
[1]; human, microsomes
  t1/2 (min) Avg ± SD (n = 3): 23.3 ± 0.4 min

## [2H]C([2H])([2H])OC(=O)N[C@H](C(=O)N[C@@H](Cc1ccccc1)[C@@H](O)CN(Cc1ccc(-c2ccccn2)cc1)NC(=O)[C@@H](NC(=O)OC)C(C)(C)C)C(C([2H])([2H])[2H])(C([2H])([2H])[2H])C([2H])([2H])[2H] [Compound 114, 1-Methyl-14-(methyl-d3)(3S,8S,9S,12S)-3-(1,1-dimethylethyl)-12-[(1,1-dimethylethyl)-d9]-8-hydroxy-4,11-dioxo-9-(phenylmethyl)-6-[[4-(2-pyridinyl)phenyl]methyl]-2,5,6,10,13-pentaazatetradecanedioate]
[2]; [3]
  Ratio of urine concentration, compound:Atazanavir: 1.8
[2]; [4]
  Ratio of urine concentration, compound:Atazanavir: 1.5
[2]; chimpanzee, in vivo, iv, 24 h
  Ratio of urine concentration, compound:Atazanavir: 1.3
  concentration detected intact in urine: 2820 ng/mL
[2]; chimpanzee, in vivo, iv
  concentration at 24 h: 2750 ng/mL
[2]; chimpanzee, in vivo, po, 24 h
  Ratio of urine concentration, compound:Atazanavir: 1.8
  concentration detected intact in urine: 963 ng/mL
[2]; chimpanzee, in vivo, po
  concentration at 24 h: 1070 ng/mL
In vivo
  concentration detected intact in urine: 4580 ng/mL
  concentration at 24 h: 2530 ng/mL
[1]; [5]
  half-life at 1 μM: 31.5 ± 0.8 min

## [2H]C([2H])([2H])OC(=O)N[C@H](C(=O)NN(Cc1ccc(-c2ccccn2)cc1)C[C@H](O)[C@H](Cc1ccccc1)NC(=O)[C@@H](NC(=O)OC([2H])([2H])[2H])C(C([2H])([2H])[2H])(C([2H])([2H])[2H])C([2H])([2H])[2H])C(C)(C)C [Compound 120, 1,14-Di(methyl-d3)(3S,8S,9S,125)-3-(1,1-dimethylethyl)-12-[(1,1-dimethylethyl)-d9]-8-hydroxy-4,11-dioxo-9-(phenlymethyl)-6-[[4-(2-pyridinyl)phenyl]methyl]-2,5,6,10,13-pentaazatetradecanedioate]
[2]; [3]
  Ratio of urine concentration, compound:Atazanavir: 2.16
[2]; [4]
  Ratio of urine concentration, compound:Atazanavir: 1.74
[2]; chimpanzee, in vivo, iv, 24 h
  Ratio of urine concentration, compound:Atazanavir: 1.52
  concentration detected intact in urine: 3110 ng/mL
[2]; chimpanzee, in vivo, iv
  concentration at 24 h: 3030 ng/mL
[2]; chimpanzee, in vivo, po, 24 h
  Ratio of urine concentration, compound:Atazanavir: 2.15
  concentration detected intact in urine: 1110 ng/mL
[2]; chimpanzee, in vivo, po
  concentration at 24 h: 1230 ng/mL
HIV-1RF
  fold less potent in the presence of HSA than in cell culture medium alone: two- to greater than three-fold less potent
HIV-1RF; Human immunodeficiency virus 1, CEM-SS, +0.5 mg/mL AAGP
  EC50: 3 nM
HIV-1RF; Human immunodeficiency virus 1, CEM-SS, +10 mg/mL HAS
  EC50: 1 nM
HIV-1RF; Human immunodeficiency virus 1, CEM-SS, +AAGP + HSA
  EC50: 4 nM
HIV-1RF; Human immunodeficiency virus 1, CEM-SS, No Serum Protein Added (cell culture medium)
  EC50: 0.5 nM
In vivo
  concentration detected intact in urine: 5030 ng/mL
  concentration at 24 h: 2930 ng/mL
[1]; [5]
  half-life at 1 μM: 26.9 ± 1.4 min

## [2H]C([2H])([2H])OC(=O)N[C@H](C(=O)N[C@@H](Cc1ccccc1)[C@@H](O)CN(Cc1ccc(-c2ccccn2)cc1)NC(=O)[C@@H](NC(=O)OC([2H])([2H])[2H])C(C)(C)C)C(C)(C)C [Compound 103, 1,14-Di(methyl-d3)(3S,8S,9S,12S)-3,12-bis(1,1-dimethylethyl)-8-hydroxy-4,11-dioxo-9-(phenylmethyl)-6-[[4-(2-pyridinyl)phenyl]methyl]-2,5,6,10,13-pentaazatetradecanedioate]
[1]; human liver microsomes, first run
  half-life as compared to atazanavir: increased half-life
[1]; human, 1 μM, pH 7.4
  % change in t1/2: −9%
[1]; human, pH 7.4, human liver microsomes 0.5 mg/mL, 1.0 μM test compound, first run (Table 2), read-out: T1/2 ± SD
  half-life at 1 μM: 20.2 ± 4.22 min
[1]; [5]
  half-life at 1 μM: 17.2 ± 0.9 min
